Measurements taken from patent US6426435B1, “Substantive water-soluble bis-quaternary salts of cinnamidoalkylamines” (Galaxy Surfactants Ltd., priority 2000, dated 2002).
Read-outs that look alike come from different tables or passages of the source.

Experiments:
[1] = UV absorption: molar extinction coefficient; format: physicochemical
Experimental: Ethyl p-methoxy cinnamate (206.0 g, 1.0 mole), […] (306.0 g, 3.0 mole) and sodium methoxide (2.0 g) were charged in a pressure reactor. The air inside the reactor was flushed out by purging of nitrogen. The reaction mixture was then stirred at 180° C. (this generated pressure of 18 kg/cm^2) for 36 hours. The progress of reaction was monitored by disappearance of ethyl p-methoxy cinnamate on chromatography (TLC and HPLC). The TLC was performed on aluminium coated silica gel plates (Merck-60-F-254) and viewed with a UV lamp at 254 nm. HPLC was performed using reversed phase technique on a C-18 bonded (octadecyl silane) column and 60% aqueous methanol as mobile phase (1.0 ml/min) and detection at 280 nm. The excess amine was removed under vacuum.

[2] = solid after removal of water
Experimental: For purposes of the present application, water-soluble compounds are defined as being soluble in water at levels above 15% w/w.
p-Methoxy cinnamidopropyldimethylamine (263.0 g, 1.0 mole) and bis-(2-dichloroethyl)ether (71.5 g, 0.5 mole) and deionised water (334.5 ml) were charged in a pressure reactor. The air inside was flushed out by purging nitrogen. The reaction mixture was then stirred at 115° C. (pressure 3 kg/cm^2) for 36 hours. The progress of the reaction was followed by analysing the chloride content.

[3] = Experimental: The major ingredients were mixed with heating to 50° C. until a uniform homogenous mixture was formed. The resulting mixture was then cooled to room temperature with continuous stirring. The required chelating agent, colour, perfume were added. The viscosity was adjusted to 2500 cps with sodium chloride.
The substantivity experiment was performed as described under;
All ingredients were heated together under stirring to 70° C. till the reaction mass became homogenous and transparent. The reaction mass was cooled to 40° C. and the required amounts of chelating agents, perfume and colour were added. The molten mass was cast in moulds of desired shape to yield transparent bathing bar.

[4] = remark: listed apart in the source
Experimental: Virgin hair (5.0 g) were washed with 10% SLES solution and rinsed with plain water. The tresses were treated for exactly 5.0 minutes with clear shampoo (containing 2% β,β′-di (p-methoxy cinnamidopropyldimethylammonium chloride) ethyl ether) as described in Example I that was diluted five times with water. After the treatment the tresses were washed thoroughly with copious amount of water. The adsorbed quaternary was extracted from the hair surface by immersing each tress in isopropanol at 65° C. for 30 minutes. A known volume of this isopropanol/quaternary ammonium salt mixture was analysed by UV-spectroscopy to determine its absorption intensity.

Compound	molar extinction coefficient, ε ([1]; in methanol, at 290 nm, in M-1·cm-1 (unit assumed))	water solubility [2] [%]	compatibility with anionic surfactant ([3]; transparent bathing bar of Example V, transparency unaffected)	compatibility with anionic surfactant ([3]; transparent shampoo of Example III (SLES-2))	substantivity ([4]; clear shampoo of Example III containing 2% compound, diluted five times with water, 5.0 minutes treatment)	deposition of quaternary on cotton fabric (substantivity) ([4]; detergent powder of Example VII (2.0% compound))	substantivity ([4]; transparent bathing bar of Example V (2.0% compound), procedure of Example III)	molar extinction coefficient, ε [1]	molar extinction coefficient, ε ([1]; in aqueous solution at 292 nm λmax)
COc1ccc(C=CC(=O)NCCCN(C)C)cc1 [p-Methoxy Cinnamidopropyldimethylamine]	24,224	–	–	–	–	–	–	–	–
COc1ccc(C=CC(=O)NCCC[N+](C)(C)CCOCC[N+](C)(C)CCCNC(=O)C=Cc2ccc(OC)cc2)cc1.[Cl-].[Cl-] [β,β′-di(p-Methoxy Cinnamidopropyldimethylammonium Chloride) Ethyl Ether]	–	> 50	total compatibility	completely compatible	22 mg/100 g of hair	21 mg/100 g of cotton fabric	20 mg /100 g of hair	42,000	42,729
